In brackets after ≈: the same amount, converted by molar mass. Activity calls are given as the source filed them. The rule behind the calls is not given here.
Key:
Klebsiella pneumoniae [1] = experiment: Bactericidal activity against Klebsiella pneumoniae ATCC 12657 at 90 uM incubated for 24 hrs by microdilution assay; type: functional, organism-based
Enterococcus faecium [2] = experiment: Antibacterial activity against Enterococcus faecium ATCC 35667 at 90 uM incubated for 24 hrs by microdilution assay; type: functional, organism-based
Acinetobacter baumannii [3] = experiment: Bactericidal activity against Acinetobacter baumannii ATCC 17978 at 90 uM incubated for 24 hrs by microdilution assay; type: functional, organism-based
NHDF [4] = experiment: Cytotoxicity against human HDF cells assessed as reduction in cell viability at 100 uM incubated for 7 days by CellTiter 96 aqueous one solution assay; type: functional, cell-based
HaCaT [5] = experiment: Cytotoxicity against human HaCaT cells assessed as reduction in cell viability at 100 uM incubated for 4 days by CellTiter 96 aqueous one solution assay; type: cell-based; details: 96 h
Staphylococcus aureus [6] = experiment: Bactericidal activity against Staphylococcus aureus ATCC 25923 at 90 uM incubated for 24 hrs by microdilution assay; type: functional, organism-based
Enterococcus faecium [7] = experiment: Antibacterial activity against Enterococcus faecium C15 at 90 uM incubated for 24 hrs by microdilution assay; type: functional, organism-based
Klebsiella aerogenes [8] = experiment: Bactericidal activity against Enterobacter aerogenes ATCC 13048 at 90 uM incubated for 24 hrs by microdilution assay; type: functional
[9] = tested on: Enterobacter cloacae subsp. cloacae; experiment: Antibacterial activity against Enterobacter cloacae ATCC 13047 at 90 uM incubated for 24 hrs by microdilution assay; type: functional
[10] = tested on: Enterobacter cloacae subsp. cloacae; experiment: Bactericidal activity against Enterobacter cloacae ATCC 13047 at 90 uM incubated for 24 hrs by microdilution assay; type: functional
[11] = Selectivity ratio of IC50 for human HaCaT cells to IC50 for human HDF cells by CellTiter 96 aqueous one solution assay
Klebsiella pneumoniae [12] = experiment: Antibacterial activity against Klebsiella pneumoniae ATCC 13883 at 90 uM incubated for 24 hrs by microdilution assay; type: functional, organism-based
Enterococcus faecium [13] = experiment: Bactericidal activity against Enterococcus faecium C15 at 90 uM incubated for 24 hrs by microdilution assay; type: functional, organism-based
Staphylococcus aureus [14] = experiment: Antibacterial activity against Staphylococcus aureus ATCC 25923 at 90 uM incubated for 24 hrs by microdilution assay; type: functional, organism-based
Klebsiella aerogenes [15] = experiment: Antibacterial activity against Enterobacter aerogenes ATCC 13048 at 90 uM incubated for 24 hrs by microdilution assay; type: functional
Pseudomonas aeruginosa [16] = experiment: Antibacterial activity against Pseudomonas aeruginosa ATCC 10145 at 90 uM incubated for 24 hrs by microdilution assay; type: functional, organism-based
Pseudomonas aeruginosa [17] = experiment: Antibacterial activity against Pseudomonas aeruginosa ATCC 49189 at 90 uM incubated for 24 hrs by microdilution assay; type: functional, organism-based
Acinetobacter baumannii [18] = experiment: Antibacterial activity against Acinetobacter baumannii ATCC 19606 at 90 uM incubated for 24 hrs by microdilution assay; type: functional, organism-based; details: ATCC 19606 = CIP 70.34 = JCM 6841
Acinetobacter baumannii [19] = experiment: Bactericidal activity against Acinetobacter baumannii ATCC 19606 at 90 uM incubated for 24 hrs by microdilution assay; type: functional, organism-based; details: ATCC 19606 = CIP 70.34 = JCM 6841
Klebsiella pneumoniae [20] = experiment: Antibacterial activity against Klebsiella pneumoniae ATCC 12657 at 90 uM incubated for 24 hrs by microdilution assay; type: functional, organism-based
Pseudomonas aeruginosa [21] = experiment: Bactericidal activity against Pseudomonas aeruginosa ATCC 49189 at 90 uM incubated for 24 hrs by microdilution assay; type: functional, organism-based
Staphylococcus aureus [22] = experiment: Antibacterial activity against Staphylococcus aureus ATCC 29247 at 90 uM incubated for 24 hrs by microdilution assay; type: functional, organism-based
Staphylococcus aureus [23] = experiment: Bactericidal activity against Staphylococcus aureus ATCC 29247 at 90 uM incubated for 24 hrs by microdilution assay; type: functional, organism-based
Acinetobacter baumannii [24] = experiment: Antibacterial activity against Acinetobacter baumannii ATCC 17978 at 90 uM incubated for 24 hrs by microdilution assay; type: functional, organism-based
Pseudomonas aeruginosa [25] = experiment: Bactericidal activity against Pseudomonas aeruginosa ATCC 10145 at 90 uM incubated for 24 hrs by microdilution assay; type: functional, organism-based
Enterococcus faecium [26] = experiment: Bactericidal activity against Enterococcus faecium ATCC 35667 at 90 uM incubated for 24 hrs by microdilution assay; type: functional, organism-based
Klebsiella pneumoniae [27] = experiment: Bactericidal activity against Klebsiella pneumoniae ATCC 13883 at 90 uM incubated for 24 hrs by microdilution assay; type: functional, organism-based
HaCaT [28] = experiment: Cytotoxicity against human HaCaT cells assessed as reduction in cell viability incubated for 4 days by CellTiter 96 aqueous one solution assay; type: cell-based; details: 96 h
NHDF [29] = experiment: Cytotoxicity against human HDF cells assessed as reduction in cell viability incubated for 7 days by CellTiter 96 aqueous one solution assay; type: functional, cell-based; details: 168 h
Enterococcus faecium [30] = experiment: Bactericidal activity against Enterococcus faecium ATCC 35667 incubated for 24 hrs by microdilution assay; type: functional; details: ATCC 35667, 24 h
Enterococcus faecium [31] = experiment: Antibacterial activity against Enterococcus faecium C15 incubated for 24 hrs by microdilution assay; type: functional
Enterococcus faecium [32] = experiment: Antibacterial activity against Enterococcus faecium ATCC 35667 incubated for 24 hrs by microdilution assay; type: functional
Enterococcus faecium [33] = experiment: Bactericidal activity against Enterococcus faecium C15 incubated for 24 hrs by microdilution assay; type: functional; details: C15, 24 h
Staphylococcus aureus [34] = experiment: Antibacterial activity against Staphylococcus aureus ATCC 29247 incubated for 24 hrs by microdilution assay; type: functional
Staphylococcus aureus [35] = experiment: Antibacterial activity against Staphylococcus aureus ATCC 25923 incubated for 24 hrs by microdilution assay; type: functional

Row | SMILES | Activity (Klebsiella pneumoniae [1]) | Activity (Enterococcus faecium [2]) | Activity (Acinetobacter baumannii [3]) | Activity (Staphylococcus aureus [6]) | Activity (Klebsiella aerogenes [8]) | Activity [9] | Activity [10] | Ratio IC50 [11] | Activity (Klebsiella pneumoniae [12]) | Activity (Klebsiella aerogenes [15]) | Activity (Pseudomonas aeruginosa [16]) | Activity (Pseudomonas aeruginosa [17]) | Activity (Acinetobacter baumannii [18]) | Activity (Acinetobacter baumannii [19]) | Activity (Klebsiella pneumoniae [20]) | Activity (Pseudomonas aeruginosa [21]) | Activity (Staphylococcus aureus [23]) | Activity (Acinetobacter baumannii [24]) | Activity (Pseudomonas aeruginosa [25]) | Activity (Klebsiella pneumoniae [27]) | further results
1 | C[C@@H]1CC[C@]2(OC1)O[C@H]1C[C@H]3[C@@H]4CC[C@H]5C[C@@H](O)C[C@@H](O[C@@H]6OC[C@H](O)[C@H](O)[C@H]6O)[C@]5(C)[C@H]4CC[C@]3(C)[C@H]1[C@@H]2C | inactive | inactive | inactive | inactive | inactive | inactive | inactive | 3 - 11 | inactive | inactive | inactive | inactive | inactive | inactive | inactive | inactive | inactive | inactive | inactive | inactive | Activity (NHDF [4]): inactive; Activity (HaCaT [5]): Not Active; Activity (Enterococcus faecium [7]): inactive; Activity (Enterococcus faecium [13]): inactive; Activity (Staphylococcus aureus [14]): inactive; Activity (Staphylococcus aureus [22]): inactive; Activity (Enterococcus faecium [26]): inactive
2 | C=C1CC[C@]2(OC1)O[C@H]1C[C@H]3[C@@H]4CC[C@H]5C[C@H](O)C[C@@H](O[C@@H]6O[C@H](C)[C@H](O)[C@H](O)[C@H]6O)[C@]5(C)[C@H]4CC[C@]3(C)[C@H]1[C@@H]2C | inactive | – | inactive | inactive | inactive | inactive | inactive | 3 - 11 | inactive | inactive | inactive | inactive | inactive | inactive | inactive | inactive | inactive | inactive | inactive | inactive | IC50 (HaCaT [28]): 38.9 µM; IC50 (NHDF [29]): 8.3 µM; MBC (Enterococcus faecium [30]): 86.4 µM (≈ 49.8 µg/mL); MIC75 (Enterococcus faecium [31]): 21.7 µM (≈ 12.5 µg/mL); MIC75 (Enterococcus faecium [32]): 43.3 µM (≈ 25 µg/mL); MBC (Enterococcus faecium [33]): 86.4 µM (≈ 49.8 µg/mL); MIC75 (Staphylococcus aureus [34]): 21.7 µM (≈ 12.5 µg/mL); MIC75 (Staphylococcus aureus [35]): 21.7 µM (≈ 12.5 µg/mL)
3 | C=C1CC[C@]2(OC1)O[C@H]1C[C@H]3[C@@H]4CC[C@H]5C[C@@H](O)C[C@@H](O[C@@H]6OC[C@H](O)[C@H](O)[C@H]6O)[C@]5(C)[C@H]4CC[C@]3(C)[C@H]1[C@@H]2C | inactive | inactive | inactive | inactive | inactive | inactive | inactive | 3 - 11 | inactive | inactive | inactive | inactive | inactive | inactive | inactive | inactive | inactive | inactive | inactive | inactive | Activity (NHDF [4]): inactive; Activity (HaCaT [5]): Not Active; Activity (Enterococcus faecium [7]): inactive; Activity (Enterococcus faecium [13]): inactive; Activity (Staphylococcus aureus [14]): inactive; Activity (Staphylococcus aureus [22]): inactive; Activity (Enterococcus faecium [26]): inactive
4 | C[C@@H]1CC[C@]2(OC1)O[C@H]1C[C@H]3[C@@H]4CC[C@H]5C[C@H](O)C[C@@H](O[C@@H]6O[C@H](C)[C@H](O)[C@H](O)[C@H]6O)[C@]5(C)[C@H]4CC[C@]3(C)[C@H]1[C@@H]2C | inactive | – | inactive | inactive | inactive | inactive | inactive | 3 - 11 | inactive | inactive | inactive | inactive | inactive | inactive | inactive | inactive | inactive | inactive | inactive | inactive | IC50 (HaCaT [28]): 36.5 µM; IC50 (NHDF [29]): 7.5 µM; MBC (Enterococcus faecium [30]): 86.4 µM (≈ 50 µg/mL); MIC75 (Enterococcus faecium [31]): 43.2 µM (≈ 25 µg/mL); MIC75 (Enterococcus faecium [32]): 43.2 µM (≈ 25 µg/mL); MBC (Enterococcus faecium [33]): 86.4 µM (≈ 50 µg/mL); MIC75 (Staphylococcus aureus [34]): 43.2 µM (≈ 25 µg/mL); MIC75 (Staphylococcus aureus [35]): 43.2 µM (≈ 25 µg/mL)

From ChEMBL document CHEMBL4414613, “Antibacterial 5α-Spirostane Saponins from the Fruit of Cordyline manners-suttoniae” (J Nat Prod, 2019)
